# Earlier results, collected in patent US6362158B1, “Multi-phase clear fabric softening composition” (Colgate-Palmolive Co., priority 2000, dated 2002).
# “And” between values parts separate entries of the source, which are not always exact repeats. Identical values can stand only once. Like-named read-outs stand apart in the source and are kept apart here.
# Settings: solvent, logarithm to base 10 of P
Compound,log P (octanol/water partition coefficient),log P (octanol/water partition coefficient) (listed as dipropylene glycol n-propyl ether)
OCCCCO [1-4 Butanediol],(log P = −1.3),
"CCCOC(C)COC(C)CO (centres unmarked) [DPnP, dipropylene glycol n-propyl ether]",0.99)^2,0.994
CCCCCCCCCCO [Decanol],3.32),
CCCCCCCCO [Octanol],3.15),
CCCCCO [Pentanol],1.3,
"CCCCOC(C)COC(C)COC(C)CO (centres unmarked) [TPnB, tripropylene glycol n-butyl ether]",1.896 and 1.9,
CC(C)C(O)C(C)(C)CO (centres unmarked) [Trimethyl Pentanediol],1.24,
